Source: ChEMBL document CHEMBL5291721, “A preclinical secondary pharmacology resource illuminates target-adverse drug reaction associations of marketed drugs” (Nat Commun, 2023)

Key:
[1] = molecular target: Kappa-type opioid receptor (Homo sapiens, UniProt P41145)
[2] = molecular target: T1, 5-hydroxytryptamine receptor 1A (Homo sapiens, UniProt P08908); type: functional, cell-based
T1 sequence (P08908 whole entry): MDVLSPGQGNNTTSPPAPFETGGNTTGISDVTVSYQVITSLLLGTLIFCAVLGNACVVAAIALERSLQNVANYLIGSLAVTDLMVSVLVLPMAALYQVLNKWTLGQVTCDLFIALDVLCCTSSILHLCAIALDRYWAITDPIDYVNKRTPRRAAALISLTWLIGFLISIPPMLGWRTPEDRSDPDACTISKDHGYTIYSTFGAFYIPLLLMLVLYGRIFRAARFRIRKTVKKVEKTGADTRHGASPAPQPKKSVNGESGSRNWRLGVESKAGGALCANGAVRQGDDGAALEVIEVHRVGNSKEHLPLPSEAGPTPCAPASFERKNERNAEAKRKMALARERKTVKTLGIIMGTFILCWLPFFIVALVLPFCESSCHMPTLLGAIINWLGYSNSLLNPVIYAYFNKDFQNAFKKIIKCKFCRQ

[3] = molecular target: T1, 5-hydroxytryptamine receptor 1A; type: functional, cell-based; remark: listed apart in the source
[4] = molecular target: T2, Cholecystokinin receptor type A (Homo sapiens, UniProt P32238)
T2 sequence (P32238 whole entry): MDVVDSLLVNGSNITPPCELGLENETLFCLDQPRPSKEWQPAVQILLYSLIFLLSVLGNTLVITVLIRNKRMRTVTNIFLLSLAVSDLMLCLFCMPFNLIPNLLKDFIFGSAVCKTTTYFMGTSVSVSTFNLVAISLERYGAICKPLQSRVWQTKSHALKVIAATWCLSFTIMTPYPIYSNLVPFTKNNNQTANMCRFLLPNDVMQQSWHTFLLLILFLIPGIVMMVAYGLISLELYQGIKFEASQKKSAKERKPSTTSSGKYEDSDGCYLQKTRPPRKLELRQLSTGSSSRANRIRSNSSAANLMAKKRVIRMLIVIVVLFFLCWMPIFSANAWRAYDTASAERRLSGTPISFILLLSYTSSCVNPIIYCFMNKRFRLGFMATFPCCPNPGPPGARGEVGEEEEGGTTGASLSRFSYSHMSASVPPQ

[5] = molecular target: Vasopressin V1a receptor (Homo sapiens, UniProt P37288)
[6] = molecular target: Neuronal acetylcholine receptor subunit alpha-4 (Homo sapiens, UniProt P43681)
[7] = molecular target: T3, Alpha-1A adrenergic receptor (Homo sapiens, UniProt P35348); type: functional, cell-based
T3 sequence (P35348 whole entry): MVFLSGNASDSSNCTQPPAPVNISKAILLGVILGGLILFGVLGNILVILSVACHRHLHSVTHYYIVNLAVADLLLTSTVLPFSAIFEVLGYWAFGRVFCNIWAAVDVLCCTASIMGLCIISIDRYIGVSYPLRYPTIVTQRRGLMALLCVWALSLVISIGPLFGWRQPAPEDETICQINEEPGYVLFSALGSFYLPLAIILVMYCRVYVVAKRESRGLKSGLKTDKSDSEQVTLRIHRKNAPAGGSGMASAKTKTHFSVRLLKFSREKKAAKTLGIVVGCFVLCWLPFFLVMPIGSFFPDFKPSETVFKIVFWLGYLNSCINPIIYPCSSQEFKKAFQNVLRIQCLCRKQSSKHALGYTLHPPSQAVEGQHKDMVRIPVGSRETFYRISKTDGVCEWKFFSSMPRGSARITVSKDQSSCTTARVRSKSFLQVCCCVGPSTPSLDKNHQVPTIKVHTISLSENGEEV

[8] = molecular target: T3, Alpha-1A adrenergic receptor
[9] = molecular target: 3',5'-cyclic-AMP phosphodiesterase 4D (Homo sapiens, UniProt Q08499); type: functional
[10] = molecular target: T4, Muscarinic acetylcholine receptor M1 (Homo sapiens, UniProt P11229); type: functional, cell-based
T4 sequence (P11229 whole entry): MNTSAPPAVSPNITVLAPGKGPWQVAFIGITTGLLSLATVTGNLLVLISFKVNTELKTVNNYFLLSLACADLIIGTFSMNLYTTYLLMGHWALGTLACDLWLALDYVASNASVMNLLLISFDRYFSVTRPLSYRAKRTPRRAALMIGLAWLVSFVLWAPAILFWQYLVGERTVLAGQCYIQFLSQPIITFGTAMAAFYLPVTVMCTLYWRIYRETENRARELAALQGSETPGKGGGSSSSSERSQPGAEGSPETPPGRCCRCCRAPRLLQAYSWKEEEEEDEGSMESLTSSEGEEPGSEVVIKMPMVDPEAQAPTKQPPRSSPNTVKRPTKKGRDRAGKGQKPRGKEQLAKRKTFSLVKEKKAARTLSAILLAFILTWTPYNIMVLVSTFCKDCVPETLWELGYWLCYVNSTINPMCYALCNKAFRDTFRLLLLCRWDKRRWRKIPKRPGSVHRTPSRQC

[11] = molecular target: Gamma-aminobutyric acid receptor subunit alpha-1 (Rattus norvegicus, UniProt P62813); type: functional
[12] = molecular target: D(3) dopamine receptor (Homo sapiens, UniProt P35462)
Also: assay procedure not described here.

Chain of D(3) dopamine receptor (P35462 whole entry): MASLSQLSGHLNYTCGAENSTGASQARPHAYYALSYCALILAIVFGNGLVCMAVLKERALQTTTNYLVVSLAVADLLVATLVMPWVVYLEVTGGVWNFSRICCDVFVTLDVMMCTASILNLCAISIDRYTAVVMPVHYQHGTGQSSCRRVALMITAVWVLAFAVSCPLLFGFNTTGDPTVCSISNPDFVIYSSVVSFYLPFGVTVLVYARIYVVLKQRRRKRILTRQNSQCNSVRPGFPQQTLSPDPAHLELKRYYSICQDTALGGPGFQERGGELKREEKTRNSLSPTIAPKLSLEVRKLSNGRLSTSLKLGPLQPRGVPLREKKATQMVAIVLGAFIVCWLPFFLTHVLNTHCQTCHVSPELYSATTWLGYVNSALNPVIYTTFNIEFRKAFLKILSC
Chain of Neuronal acetylcholine receptor subunit alpha-4 (P43681 whole entry): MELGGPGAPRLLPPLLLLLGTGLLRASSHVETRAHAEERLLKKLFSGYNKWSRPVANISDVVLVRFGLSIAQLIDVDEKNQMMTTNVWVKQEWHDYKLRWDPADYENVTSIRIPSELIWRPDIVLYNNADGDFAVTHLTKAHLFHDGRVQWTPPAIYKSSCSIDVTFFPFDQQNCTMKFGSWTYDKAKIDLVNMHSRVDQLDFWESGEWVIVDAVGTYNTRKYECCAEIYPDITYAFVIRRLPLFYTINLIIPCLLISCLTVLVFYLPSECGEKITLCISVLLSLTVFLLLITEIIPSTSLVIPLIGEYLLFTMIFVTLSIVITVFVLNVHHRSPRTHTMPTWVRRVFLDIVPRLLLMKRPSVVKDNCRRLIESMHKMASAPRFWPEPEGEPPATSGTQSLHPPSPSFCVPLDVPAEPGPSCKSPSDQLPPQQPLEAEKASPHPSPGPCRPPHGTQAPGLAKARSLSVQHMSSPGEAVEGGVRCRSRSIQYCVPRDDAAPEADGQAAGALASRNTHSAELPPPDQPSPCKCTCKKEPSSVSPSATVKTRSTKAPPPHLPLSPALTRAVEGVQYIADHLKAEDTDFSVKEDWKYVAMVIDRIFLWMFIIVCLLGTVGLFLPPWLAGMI
Chain of 3',5'-cyclic-AMP phosphodiesterase 4D (Q08499 whole entry): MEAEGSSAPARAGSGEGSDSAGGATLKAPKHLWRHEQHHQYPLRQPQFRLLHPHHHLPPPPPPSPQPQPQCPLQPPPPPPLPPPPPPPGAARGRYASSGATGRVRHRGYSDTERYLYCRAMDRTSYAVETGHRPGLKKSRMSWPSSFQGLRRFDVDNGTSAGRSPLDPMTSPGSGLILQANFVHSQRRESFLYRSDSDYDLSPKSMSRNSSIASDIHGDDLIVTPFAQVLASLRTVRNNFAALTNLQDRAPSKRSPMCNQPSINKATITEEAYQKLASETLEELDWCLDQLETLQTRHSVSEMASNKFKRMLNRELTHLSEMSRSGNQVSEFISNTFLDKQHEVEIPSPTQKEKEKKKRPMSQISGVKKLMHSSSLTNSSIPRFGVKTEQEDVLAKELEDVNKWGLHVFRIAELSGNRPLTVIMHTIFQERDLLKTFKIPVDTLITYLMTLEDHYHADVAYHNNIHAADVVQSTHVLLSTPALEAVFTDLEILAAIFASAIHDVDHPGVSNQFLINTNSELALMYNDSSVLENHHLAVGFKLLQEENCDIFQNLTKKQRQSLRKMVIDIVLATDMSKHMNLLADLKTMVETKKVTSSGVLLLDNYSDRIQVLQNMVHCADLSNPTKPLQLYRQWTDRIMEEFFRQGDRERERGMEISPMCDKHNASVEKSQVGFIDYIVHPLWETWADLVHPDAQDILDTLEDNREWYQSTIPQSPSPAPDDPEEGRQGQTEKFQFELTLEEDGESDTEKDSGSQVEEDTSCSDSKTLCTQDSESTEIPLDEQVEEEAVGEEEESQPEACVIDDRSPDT
Chain of Gamma-aminobutyric acid receptor subunit alpha-1 (P62813 whole entry): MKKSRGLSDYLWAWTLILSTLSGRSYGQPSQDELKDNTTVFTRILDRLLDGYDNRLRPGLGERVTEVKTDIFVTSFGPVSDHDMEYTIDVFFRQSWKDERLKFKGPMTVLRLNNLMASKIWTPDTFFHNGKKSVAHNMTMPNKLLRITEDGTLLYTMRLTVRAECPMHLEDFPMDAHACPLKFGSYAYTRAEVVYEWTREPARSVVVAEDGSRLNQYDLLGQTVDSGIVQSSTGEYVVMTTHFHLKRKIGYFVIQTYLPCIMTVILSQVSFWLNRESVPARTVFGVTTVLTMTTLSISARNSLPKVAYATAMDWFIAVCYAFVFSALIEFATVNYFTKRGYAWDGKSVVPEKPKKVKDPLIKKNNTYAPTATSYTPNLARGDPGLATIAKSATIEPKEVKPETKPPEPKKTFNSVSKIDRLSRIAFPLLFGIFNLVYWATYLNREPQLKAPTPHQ
Chain of Vasopressin V1a receptor (P37288 whole entry): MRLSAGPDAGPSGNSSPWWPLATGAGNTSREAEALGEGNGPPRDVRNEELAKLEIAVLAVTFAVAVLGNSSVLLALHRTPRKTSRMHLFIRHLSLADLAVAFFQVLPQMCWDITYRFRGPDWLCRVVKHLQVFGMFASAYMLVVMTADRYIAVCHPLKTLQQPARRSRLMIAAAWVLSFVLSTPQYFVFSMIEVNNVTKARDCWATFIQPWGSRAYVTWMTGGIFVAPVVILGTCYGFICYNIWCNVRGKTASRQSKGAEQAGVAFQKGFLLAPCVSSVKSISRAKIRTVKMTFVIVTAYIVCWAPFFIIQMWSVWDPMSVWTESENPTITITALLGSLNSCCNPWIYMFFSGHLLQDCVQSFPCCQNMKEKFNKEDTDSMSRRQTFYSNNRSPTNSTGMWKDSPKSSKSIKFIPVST
Chain of Kappa-type opioid receptor (P41145 whole entry): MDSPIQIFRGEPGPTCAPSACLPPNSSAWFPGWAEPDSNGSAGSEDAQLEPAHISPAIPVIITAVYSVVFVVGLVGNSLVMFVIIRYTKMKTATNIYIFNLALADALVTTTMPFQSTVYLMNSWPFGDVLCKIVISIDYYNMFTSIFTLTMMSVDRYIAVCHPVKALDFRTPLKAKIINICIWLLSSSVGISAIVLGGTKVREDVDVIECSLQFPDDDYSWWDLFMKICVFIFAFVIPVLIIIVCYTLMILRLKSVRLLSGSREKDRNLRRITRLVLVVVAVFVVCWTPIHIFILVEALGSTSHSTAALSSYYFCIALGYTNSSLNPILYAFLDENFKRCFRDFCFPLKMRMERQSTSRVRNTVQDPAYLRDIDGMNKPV

O=C(O)COCCN1CCN(C(c2ccccc2)c2ccc(Cl)cc2)CC1 (configuration not stated) [CETIRIZINE]
AC50 [1]: > 10 µM
AC50 [2]: > 10 µM
AC50 [3]: > 10 µM
AC50 [4]: > 30 µM
AC50 [5]: > 10 µM
AC50 [6]: > 10 µM
AC50 [7]: > 30 µM
AC50 [8]: > 10 µM
AC50 [9]: > 30 µM

Cc1oc(=O)oc1COC(=O)[C@@H]1N2C(=O)[C@@H](NC(=O)[C@H](N)c3ccccc3)[C@H]2SC1(C)C [LENAMPICILLIN]
AC50 [10]: 9.21 µM

c1ccc2c(SC3=NCCN3)c[nH]c2c1 [TINAZOLINE]
AC50 [10]: > 30 µM

CC(OCCN1CCCCCC1)(c1ccccc1)c1ccc(Cl)cc1 (configuration not stated) [SETASTINE]
AC50 [10]: 0.493 µM

COc1cc(C)c2c(Oc3cccc(C(F)(F)F)c3)c(OC)cc(NC(C)CCCN)c2n1 (configuration not stated) [TAFENOQUINE]
AC50 [10]: > 3 µM

Cc1ccccc1-n1c(CF)nc2ccc(N)cc2c1=O [AFLOQUALONE]
AC50 [11]: > 10 µM
AC50 [1]: > 10 µM
AC50 [12]: > 30 µM
AC50 [2]: > 10 µM
AC50 [3]: > 10 µM
AC50 [4]: > 30 µM
AC50 [5]: > 30 µM
AC50 [6]: > 30 µM
AC50 [8]: > 30 µM
AC50 [9]: 13 µM

NC(=O)[C@@H]1CC[C@@H]2CN1C(=O)N2OS(=O)(=O)O [AVIBACTAM]
AC50 [10]: > 30 µM

O=C(CCC/C=C\C[C@@H]1[C@@H](CC[C@@H](O)CCc2ccccc2)[C@H](O)C[C@@H]1O)OCCCCO[N+](=O)[O-] [LATANOPROSTENE BUNOD]
AC50 [10]: > 10 µM

COc1ccc([C@@H]2CC(=O)c3c(O)cc(O)cc3O2)cc1O [HESPERETIN]
AC50 [11]: > 10 µM
AC50 [1]: > 10 µM
AC50 [12]: > 30 µM
AC50 [2]: > 10 µM
AC50 [3]: > 10 µM
AC50 [4]: > 10 µM
AC50 [5]: > 10 µM
AC50 [6]: > 10 µM
AC50 [8]: > 30 µM
AC50 [9]: 30 µM

CC(O)(CS(=O)(=O)c1ccc(F)cc1)C(=O)Nc1ccc(C#N)c(C(F)(F)F)c1 (configuration not stated) [BICALUTAMIDE]
AC50 [11]: > 10 µM
AC50 [1]: > 10 µM
AC50 [12]: > 10 µM
AC50 [2]: > 10 µM
AC50 [3]: > 10 µM
AC50 [4]: > 30 µM
AC50 [5]: > 30 µM
AC50 [6]: > 30 µM
AC50 [7]: > 30 µM
AC50 [8]: > 10 µM
AC50 [9]: > 30 µM

CC(C)(Oc1ccc(CCNC(=O)c2ccc(Cl)cc2)cc1)C(=O)O [BEZAFIBRATE]
AC50 [11]: > 10 µM
AC50 [1]: > 10 µM
AC50 [12]: > 30 µM
AC50 [2]: > 30 µM
AC50 [3]: > 30 µM
AC50 [4]: > 10 µM
AC50 [5]: > 10 µM
AC50 [6]: > 10 µM
AC50 [7]: > 30 µM
AC50 [8]: > 10 µM
AC50 [9]: > 30 µM

CN[C@@H](C)[C@@H](O)c1ccccc1 [PSEUDOEPHEDRINE]
AC50 [11]: > 10 µM
AC50 [1]: > 10 µM
AC50 [12]: > 10 µM
AC50 [2]: > 10 µM
AC50 [3]: > 10 µM
AC50 [4]: > 30 µM
AC50 [5]: > 10 µM
AC50 [6]: > 10 µM
AC50 [8]: > 10 µM
AC50 [9]: > 30 µM
